Measurements: PubChem BioAssay (NCI)
“And” between values parts separate entries of the source, which are not always exact repeats. Equal values may be shown once.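 Cultured in 96-well plates, cells were exposed to test compound for 48 hours across five concentrations. GI50 is the concentration that inhibits growth by half. Definition used: TGI = concentration required for complete inhibition of growth.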

Assays:
Assay in all cases: growth of human tumour cells (NCI), 48 h
786-0 renal = test system: 786-0 renal
A498 renal = test system: A498 renal
COLO 205 colon = test system: COLO 205 colon
HCC-2998 colon = test system: HCC-2998 colon
OVCAR-4 ovarian = test system: OVCAR-4 ovarian
RXF 393 renal = test system: RXF 393 renal
SF-295 CNS = test system: SF-295 CNS
U251 CNS = test system: U251 CNS
UACC-62 melanoma = test system: UACC-62 melanoma
MDA-MB-435 = test system: MDA-MB-435

Row | SMILES | TGI (786-0 renal) | TGI (A498 renal) | TGI (COLO 205 colon) | TGI (HCC-2998 colon) | TGI (OVCAR-4 ovarian) | TGI (RXF 393 renal) | TGI (SF-295 CNS) | TGI (U251 CNS) | TGI (UACC-62 melanoma) | GI50 (786-0 renal) | GI50 (A498 renal) | GI50 (COLO 205 colon) | GI50 (MDA-MB-435) | TGI (MDA-MB-435) | GI50 (OVCAR-4 ovarian) | GI50 (SF-295 CNS) | GI50 (U251 CNS) | GI50 (RXF 393 renal) | GI50 (UACC-62 melanoma)
1 | CC1=C(C(=O)NCc2ccccc2)C(c2ccccc2O)C(C(=O)NCc2ccccc2)=C(C)N1 | 33.7 µM | 33.9 µM | 30.9 µM | 35.9 µM | 35.4 µM | 34.4 µM | 44.7 µM | 29.5 µM | 34 µM | – | – | – | – | – | – | – | – | – | –
2 | CCCCCC/C(CC(=O)CCC(=O)NCCc1ccccc1)=N\NC(=O)c1ccc2ccccc2c1O | > 100 µM | – | > 100 µM | > 100 µM | > 100 µM | > 100 µM | > 100 µM | > 100 µM | 50.8 µM | – | – | – | – | – | – | – | – | – | –
3 | N#CCCn1c(CCC(=O)Nc2ccc(Cl)cc2Cl)n[nH]c1=S | > 100 µM | > 100 µM | > 100 µM | > 100 µM | > 100 µM | > 100 µM | > 100 µM | > 100 µM | > 100 µM | – | – | – | – | – | – | – | – | – | –
4 | COc1ccc(S(=O)(=O)N/N=C/CN2C(=O)c3ccccc3C2=O)cc1 | > 100 µM | > 100 µM | > 100 µM | > 100 µM | > 100 µM | > 100 µM | > 100 µM | > 100 µM | > 100 µM | – | – | – | – | – | – | – | – | – | –
5 | Nc1nc(N)c(-c2ccc(Cl)cc2)c(/C=C/c2ccc([N+](=O)[O-])cc2)n1 | 44.9 µM | 16.5 µM | > 100 µM | – | > 100 µM | – | > 100 µM | 23.8 µM | – | 5.81 µM | 1.97 µM | 6.01 µM | 4.44 µM | > 100 µM | 4.54 µM | 4.39 µM | 3.99 µM | – | –
6 | CC(=O)Nc1ccccc1S(=O)c1ccccc1 (stereo unspecified) | > 100 µM | > 100 µM | > 100 µM | > 100 µM | > 100 µM | > 100 µM | > 100 µM | > 100 µM | > 100 µM | – | – | – | – | – | – | – | – | – | –
7 | CN/N=C(/CC(=O)c1sc(NNC(C)=O)nc1C)C(=O)Nc1ccc(OC)cc1OC | > 100 µM | > 100 µM | > 100 µM | > 100 µM | > 100 µM | – | > 100 µM | > 100 µM | > 100 µM | – | – | – | – | – | – | – | – | – | –
8 | C=C1CC(CC(=O)C(C)CC2CC(=C)C(=O)O2)OC1=O (stereo unspecified) | 43.3 µM | > 100 µM | 27.1 µM | > 100 µM | 30.5 µM | 37.9 µM | > 100 µM | > 100 µM | 30.1 µM | – | – | – | – | – | – | – | – | – | –
9 | CC(=O)N1CCN(C=S)CC1 | > 100 µM | > 100 µM | > 100 µM | > 100 µM | > 100 µM | > 100 µM | > 100 µM | > 100 µM | > 100 µM | – | – | – | – | – | – | – | – | – | –
10 | ClCCCN1CCCCC1CCl (stereo unspecified) | > 100 µM | > 100 µM | > 100 µM | > 100 µM | > 100 µM | > 100 µM | > 100 µM | > 100 µM | > 100 µM | – | – | – | – | – | – | – | – | – | –
11 | C[C@H](CCCOS(C)(=O)=O)[C@H]1CC[C@H]2[C@@H]3CC[C@@H]4C[C@H](OS(C)(=O)=O)CC[C@]4(C)[C@H]3CC[C@]12C | – | – | > 2500 µM | – | > 2500 µM | > 2500 µM | 1340 µM | – | – | 523 µM | 664 µM | 1130 µM | 1140 µM | – | 1850 µM | 532 µM | 356 µM | 367 µM | 710 µM
12 | O=C1CC2OCC=C3CN4CCC56c7ccccc7N1C5C2C3CC46 (stereo unspecified) (tested in a mixture with another compound) | > 50 µg/mL | > 50 µg/mL | > 50 µg/mL | – | > 50 µg/mL | > 50 µg/mL | > 50 µg/mL | > 50 µg/mL | > 50 µg/mL | > 50 µg/mL | > 50 µg/mL | > 50 µg/mL | > 50 µg/mL | > 50 µg/mL | > 50 µg/mL | > 50 µg/mL | > 50 µg/mL | > 50 µg/mL | > 50 µg/mL
13 | O=C(OCc1ccccc1)c1ccccc1-c1c2ccc(=O)cc-2oc2cc(OCc3ccccc3)ccc12 | 71 µM | 88.2 µM | 42.8 µM | 56 µM | > 100 µM | 34 µM | 80.3 µM | 13.9 µM | 24.6 µM | – | – | – | – | – | – | – | – | – | –
14 | CN(C)c1ccc(/C=c2\sc3nnc(Cc4ccccc4)n3c2=O)cc1 | > 100 µM | > 100 µM | > 10 µM | > 100 µM | > 100 µM | > 10 µM and 97.3 µM | > 100 µM | > 100 µM | > 100 µM | > 100 µM | > 100 µM | – | – | – | > 100 µM | > 100 µM | > 100 µM | > 10 µM | > 100 µM
15 | NCCNc1ncnc2ccc(Cl)cc12 | > 100 µM | > 100 µM | > 100 µM | – | > 100 µM | > 100 µM | > 100 µM | > 100 µM | > 100 µM | – | – | – | – | > 100 µM | – | – | – | – | –
16 | COc1ccc([Se]c2ccc(OC)cc2)cc1 | > 100 µM | > 100 µM | > 100 µM | > 100 µM | – | > 100 µM | > 100 µM | > 100 µM | > 100 µM | – | – | – | – | – | – | – | – | – | –
17 | CCC12C=CCN3CCC4(C(=C(C(=O)OC)C1)Nc1ccccc14)[C@H]32 (stereo partly specified) | 82 µM | 79.4 µM | 32.3 µM | > 100 µM | > 100 µM | 56.7 µM | 92.6 µM | – | 67.6 µM | – | – | – | – | – | – | – | – | – | –
18 | NNC(=O)N/N=C1/C(=O)N(c2ccc(Cl)c(Cl)c2)C(=O)C(=O)C1c1nc2ccccc2o1 (stereo unspecified) | > 100 µM | > 100 µM | > 100 µM | > 100 µM | > 100 µM | – | > 100 µM | > 100 µM | > 100 µM | – | – | – | – | – | – | – | – | – | –
19 | Nc1ncnc2c1ncn2C1OC(C(=O)OCCO)C(O)C1O (stereo unspecified) | > 100 µM | > 100 µM | > 100 µM | – | > 100 µM | > 100 µM | > 100 µM | > 100 µM | > 100 µM | – | – | – | – | > 100 µM | – | – | – | – | –
20 | CC1(C)N=C(N)N=C(N)N1c1ccc(CCC(=O)Nc2cccc(S(=O)(=O)F)c2)cc1 | > 100 µM | > 100 µM | > 100 µM | – | > 100 µM | > 100 µM | > 100 µM | > 100 µM | > 100 µM | 3.89 µM | 20.1 µM | 41.1 µM | 4.9 µM | > 100 µM | > 100 µM | 7.75 µM | 4.98 µM | 56.8 µM | 5.3 µM
21 | C#Cc1ccccc1N1C(=O)C=CC1=O | > 100 µM | > 100 µM | > 100 µM | – | > 100 µM | – | > 100 µM | > 100 µM | > 100 µM | – | – | – | – | – | – | – | – | – | –
